Test results: ChEMBL document CHEMBL1201862, “PubChem BioAssay data set” (2004)
Calls of active or inactive are those of the source.

Experiments:
[1] = A cytotoxicity screen of small molecule inhibitors of the PhoP region in Salmonella typhi identified in the primary screen. [Related pubchem assays: 1850, 1864, 1985 ]; type: functional
[2] = target: T1, Serine/threonine-protein phosphatase (Homo sapiens, UniProt Q9BPW0); experiment: Counterscreen for inhibitors of PP1: fluorescence-based biochemical high throughput dose response assay to identify inhibitors of Protein Phosphatase 5 (PP5). [Related pubchem assays: 2034 (Summary (PP5 inhibitors)), 1987 (PP5 inhibitors in singlate), 2235 (PP1 inhibitors in singlate)]
T1 sequence (Q9BPW0 whole entry): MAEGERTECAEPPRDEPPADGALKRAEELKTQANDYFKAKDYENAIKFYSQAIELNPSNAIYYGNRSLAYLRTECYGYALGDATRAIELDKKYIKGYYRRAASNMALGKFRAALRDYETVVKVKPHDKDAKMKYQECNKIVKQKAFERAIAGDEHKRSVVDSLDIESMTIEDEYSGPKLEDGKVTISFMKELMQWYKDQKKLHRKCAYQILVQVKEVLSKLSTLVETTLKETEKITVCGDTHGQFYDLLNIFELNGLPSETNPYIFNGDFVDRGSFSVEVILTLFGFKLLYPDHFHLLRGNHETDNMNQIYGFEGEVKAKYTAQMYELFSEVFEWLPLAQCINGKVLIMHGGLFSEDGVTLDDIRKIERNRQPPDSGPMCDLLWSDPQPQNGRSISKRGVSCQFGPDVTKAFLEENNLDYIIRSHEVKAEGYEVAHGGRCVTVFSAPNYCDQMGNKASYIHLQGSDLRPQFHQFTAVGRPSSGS

Estrogen receptor = target: T2, Estrogen receptor (Homo sapiens, UniProt P03372); experiment: potentiators of ERα–SRC-1 coactivator binding, dose response, biochemical, TR-FRET, ERα LBD (AID 737)
T2 sequence (P03372 whole entry): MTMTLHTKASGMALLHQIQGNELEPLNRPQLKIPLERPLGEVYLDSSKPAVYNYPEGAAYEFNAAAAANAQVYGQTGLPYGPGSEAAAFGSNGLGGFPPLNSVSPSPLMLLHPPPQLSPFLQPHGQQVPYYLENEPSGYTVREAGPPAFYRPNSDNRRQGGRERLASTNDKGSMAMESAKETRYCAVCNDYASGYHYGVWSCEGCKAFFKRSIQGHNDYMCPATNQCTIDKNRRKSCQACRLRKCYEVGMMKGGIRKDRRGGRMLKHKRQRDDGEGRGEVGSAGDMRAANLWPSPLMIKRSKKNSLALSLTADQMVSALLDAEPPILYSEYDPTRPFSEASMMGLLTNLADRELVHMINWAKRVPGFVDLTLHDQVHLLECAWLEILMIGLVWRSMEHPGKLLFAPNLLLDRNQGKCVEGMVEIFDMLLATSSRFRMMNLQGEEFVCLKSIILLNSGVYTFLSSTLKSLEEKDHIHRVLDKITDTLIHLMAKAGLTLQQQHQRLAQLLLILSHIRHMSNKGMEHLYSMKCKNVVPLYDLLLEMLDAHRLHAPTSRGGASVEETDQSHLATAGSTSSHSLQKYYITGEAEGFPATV

H9c2 = experiment: cells; type: functional, cell-based; settings: Rattus norvegicus, H9c2, Myocardium;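 further: confirmatory concentration-response retest of ultra-high-throughput screening hits for modulation of myocardial damage; cell death induced by hydrogen peroxide oxidative stress; compound pretreatment for 60 min then peroxide exposure for 2 h; potency is for protecting the cells against peroxide damage rather than for killing them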
[3] = cytotoxicity in HEK-293T cells, dose response, cytotoxicity control for BCR NF-kB inhibitor project, luminescence, B-cell screen hits (AID 489021); type: functional, cell-based;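 further: HEK-293T cells carrying an NF-kB luciferase reporter; cells exposed to compound for about 14 hours before viability readout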
[4] = target: DNA dC->dU-editing enzyme APOBEC-3A (Homo sapiens, UniProt P31941); experiment: APOBEC3A DNA deaminase inhibitors, dose response, biochemical (AID 504722); type: functional
[5] = target: DNA dC->dU-editing enzyme APOBEC-3G (Homo sapiens, UniProt Q9HC16); experiment: Dose Response confirmation of small molecule APOBEC3G DNA Deaminase Inhibitors via a fluorescence-based single-stranded DNA deaminase assay. [Related pubchem assays (depositor defined):AID493012, AID493028]; type: functional
[6] = target: Voltage-dependent T-type calcium channel subunit alpha-1H (Homo sapiens, UniProt O95180); type: functional;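 further: channel activity triggered by adding a high calcium stimulation buffer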
Genome polyprotein = Genome polyprotein (dengue virus type 2, UniProt P29990); experiment: Dengue-2 NS5 methyltransferase inhibitors, primary screen, biochemical, confirmation dose response (AID 588689); type: functional
Prothrombin = Prothrombin (Homo sapiens, UniProt P00734); experiment: Thrombin 1536 HTS Dose Response Confirmation. [Related pubchem assays: 1046 (Thrombin 1536 HTS; hits were confirmed in this assay)]; type: functional
[7] = inhibitors of Bluetongue virus cytopathic effect, confirmation, arbovirus, BSR cells (AID 1250); type: functional;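 further: protection from viral cytopathic effect measured as cell viability by ATP luminescence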
[8] = target: T3, Probable nicotinate-nucleotide adenylyltransferase (Staphylococcus aureus (strain N315), UniProt P65502); type: functional, Staphylococcus aureus subsp. aureus N315; settings: read-out: IC50_Mean;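 on IC50 Mean: confirmatory dose-response retesting of NadD inhibitor hits first found in an ultra-high-throughput screen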
Vero = Vero cell cytotoxicity, cytotoxicity control for flavivirus capping enzyme inhibitors (AID 588742); type: functional; settings: Chlorocebus sabaeus
Coagulation factor XII = target: T4, Coagulation factor XII (Homo sapiens, UniProt P00748); type: functional;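 further: activated factor XIIa alpha cleaving a fluorogenic AMC peptide substrate; inhibitor potency from loss of enzyme activity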
T4 sequence (P00748 whole entry): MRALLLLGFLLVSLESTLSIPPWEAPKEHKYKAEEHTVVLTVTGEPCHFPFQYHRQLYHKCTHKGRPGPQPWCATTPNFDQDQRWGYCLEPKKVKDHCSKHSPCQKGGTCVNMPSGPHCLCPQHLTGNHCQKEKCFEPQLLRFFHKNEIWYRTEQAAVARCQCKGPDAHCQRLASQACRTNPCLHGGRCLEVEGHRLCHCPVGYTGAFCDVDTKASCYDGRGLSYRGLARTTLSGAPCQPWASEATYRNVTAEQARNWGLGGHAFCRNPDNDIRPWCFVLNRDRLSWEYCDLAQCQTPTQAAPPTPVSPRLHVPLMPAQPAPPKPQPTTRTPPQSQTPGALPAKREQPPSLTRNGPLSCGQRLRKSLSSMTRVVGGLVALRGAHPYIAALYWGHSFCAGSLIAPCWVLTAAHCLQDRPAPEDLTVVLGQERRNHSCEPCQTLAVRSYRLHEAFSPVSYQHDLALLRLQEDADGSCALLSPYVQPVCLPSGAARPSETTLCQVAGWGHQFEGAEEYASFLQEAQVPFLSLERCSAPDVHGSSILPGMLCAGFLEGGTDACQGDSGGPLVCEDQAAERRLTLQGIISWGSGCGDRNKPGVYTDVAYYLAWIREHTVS

Cytochrome P450 2D6 = Cytochrome P450 2D6 (Homo sapiens, UniProt P10635);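 further: CYP2D6 member of a cytochrome P450 panel assay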
[9] = target: T3, Probable nicotinate-nucleotide adenylyltransferase; type: functional, Staphylococcus aureus subsp. aureus N315
[10] = target: Neurotensin receptor type 1 (Homo sapiens, UniProt P30989); type: functional;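 further: Image-based confirmatory dose-response assay measuring agonist activity at NTR1; NTR1-expressing U2OS osteosarcoma cells imaged for beta-arrestin GFP spot formation; agonist potency where compounds increase beta-arrestin recruitment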
Large T antigen = Large T antigen (Simian virus 40, UniProt P03070); type: functional, Betapolyomavirus macacae;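 further: Confirmatory-stage PubChem screen for compounds that inhibit SV40 T antigen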
[11] = target: Induced myeloid leukemia cell differentiation protein Mcl-1 (Homo sapiens, UniProt Q07820); type: functional
Streptococcus = experiment: Group A Streptococcus viability loss, dose response, counter-screen for streptokinase expression inhibitor project, luminescence, BacTiterGlo (AID 1915); type: functional, organism-based;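 further: potency for reduction of bacterial viability or growth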
[12] = test system: Streptococcus sp. 'group A'; experiment: growth inhibition of control SK(-) GAS strain, dose response, counter-screen for streptokinase expression inhibitor project, luminescence, kanamycin, BacTiterGlo, confirmation (AID 1900); type: functional, organism-based
Fatty acid synthase [13] = target: T5, Fatty acid synthase (Homo sapiens, UniProt P49327); experiment: FAS thioesterase domain inhibitors, dose response, biochemical, kinetic fluorescence intensity (AID 624326); type: functional;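 further: rate of fluorescence rise from hydrolysis of a fluorogenic O-methyl fluorescein ester substrate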
Fatty acid synthase [14] = target: T5, Fatty acid synthase; experiment: FAS thioesterase domain inhibitors, dose response, biochemical, endpoint fluorescence intensity, uHTS hits (AID 624327); type: functional;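 further: fluorescence from hydrolysis of an O-methyl fluorescein acyl ester substrate by the enzyme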
Streptokinase A = target: T6, Streptokinase A (Streptococcus pyogenes serotype M1, UniProt P10520); experiment: S. pyogenes streptokinase expression inhibitors, potency, dose response, plasminogen activation absorbance, OD405 (AID 1914); type: functional, Streptococcus pyogenes M1 GAS;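 further: secreted streptokinase activity via plasminogen activation per viability signal from cell pellet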
T6 sequence (P10520 whole entry): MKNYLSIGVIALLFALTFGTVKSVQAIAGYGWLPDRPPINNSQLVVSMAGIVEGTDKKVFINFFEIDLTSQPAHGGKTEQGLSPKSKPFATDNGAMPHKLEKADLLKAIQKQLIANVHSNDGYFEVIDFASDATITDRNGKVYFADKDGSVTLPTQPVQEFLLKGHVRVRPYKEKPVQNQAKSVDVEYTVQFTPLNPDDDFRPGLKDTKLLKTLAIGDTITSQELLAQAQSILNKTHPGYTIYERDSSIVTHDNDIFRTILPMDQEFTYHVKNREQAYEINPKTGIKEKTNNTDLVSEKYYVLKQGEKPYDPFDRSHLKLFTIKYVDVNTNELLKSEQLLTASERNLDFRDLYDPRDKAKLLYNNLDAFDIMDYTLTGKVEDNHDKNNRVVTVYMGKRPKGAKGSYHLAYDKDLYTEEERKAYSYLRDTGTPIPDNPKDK

Aspartyl aminopeptidase = target: T7, Aspartyl aminopeptidase (Plasmodium falciparum 3D7, UniProt Q8I2J3)
T7 sequence (Q8I2J3 whole entry): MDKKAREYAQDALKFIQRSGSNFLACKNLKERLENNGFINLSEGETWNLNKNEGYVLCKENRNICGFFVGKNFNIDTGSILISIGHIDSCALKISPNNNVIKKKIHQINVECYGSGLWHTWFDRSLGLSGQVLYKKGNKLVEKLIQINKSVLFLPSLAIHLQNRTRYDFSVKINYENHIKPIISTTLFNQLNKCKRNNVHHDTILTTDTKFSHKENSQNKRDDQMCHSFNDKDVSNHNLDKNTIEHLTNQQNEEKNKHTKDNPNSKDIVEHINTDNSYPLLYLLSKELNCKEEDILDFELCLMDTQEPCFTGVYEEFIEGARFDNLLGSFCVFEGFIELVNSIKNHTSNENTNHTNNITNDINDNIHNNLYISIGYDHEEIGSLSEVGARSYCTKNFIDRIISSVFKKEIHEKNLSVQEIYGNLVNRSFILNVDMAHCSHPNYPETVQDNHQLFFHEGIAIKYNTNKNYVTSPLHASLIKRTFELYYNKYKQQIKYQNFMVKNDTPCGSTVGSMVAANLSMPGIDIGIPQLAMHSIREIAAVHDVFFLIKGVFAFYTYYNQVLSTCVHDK

Procathepsin L = Procathepsin L (Homo sapiens, UniProt P07711)
Cytochrome P450 2C9 = Cytochrome P450 2C9 (Homo sapiens, UniProt P11712)
[15] = inhibitors of intracellular T. cruzi replication, confirmation, NIH3T3 host cells, beta-gal luminescence (AID 2044); type: functional, cell-based;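 further: intracellular parasites grown in NIH/3T3 mouse fibroblasts as host cells; luminescent beta-galactosidase reporter signal from transgenic T. cruzi replicating inside host cells; inhibitors lower the luminescence signal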
[16] = cytotoxicity toward NIH3T3 fibroblasts, dose response, counter-screen, cell-based, ATP luminescence, mouse fibroblasts (AID 2010); type: functional;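 further: cells exposed to compound for about 90 hours before reading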

DNA dC->dU-editing enzyme APOBEC-3G, sequence (Q9HC16 whole entry): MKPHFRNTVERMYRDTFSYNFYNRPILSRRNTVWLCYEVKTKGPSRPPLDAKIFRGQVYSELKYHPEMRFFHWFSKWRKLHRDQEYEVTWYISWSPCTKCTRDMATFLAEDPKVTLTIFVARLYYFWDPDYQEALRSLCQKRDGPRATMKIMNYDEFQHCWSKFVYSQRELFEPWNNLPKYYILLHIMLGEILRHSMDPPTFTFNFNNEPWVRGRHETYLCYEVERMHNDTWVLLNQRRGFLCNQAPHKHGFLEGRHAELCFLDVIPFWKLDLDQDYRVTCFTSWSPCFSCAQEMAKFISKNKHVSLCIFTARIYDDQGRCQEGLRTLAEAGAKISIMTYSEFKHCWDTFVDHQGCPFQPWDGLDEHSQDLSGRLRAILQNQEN
DNA dC->dU-editing enzyme APOBEC-3A, sequence (P31941 whole entry): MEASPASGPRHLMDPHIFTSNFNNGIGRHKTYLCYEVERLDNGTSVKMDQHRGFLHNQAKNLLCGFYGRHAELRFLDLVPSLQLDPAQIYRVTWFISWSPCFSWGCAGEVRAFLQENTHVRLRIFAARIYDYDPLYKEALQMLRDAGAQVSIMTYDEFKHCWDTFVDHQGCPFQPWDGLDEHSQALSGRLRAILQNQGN
T5 sequence (P49327 whole entry, the tested form may be a part): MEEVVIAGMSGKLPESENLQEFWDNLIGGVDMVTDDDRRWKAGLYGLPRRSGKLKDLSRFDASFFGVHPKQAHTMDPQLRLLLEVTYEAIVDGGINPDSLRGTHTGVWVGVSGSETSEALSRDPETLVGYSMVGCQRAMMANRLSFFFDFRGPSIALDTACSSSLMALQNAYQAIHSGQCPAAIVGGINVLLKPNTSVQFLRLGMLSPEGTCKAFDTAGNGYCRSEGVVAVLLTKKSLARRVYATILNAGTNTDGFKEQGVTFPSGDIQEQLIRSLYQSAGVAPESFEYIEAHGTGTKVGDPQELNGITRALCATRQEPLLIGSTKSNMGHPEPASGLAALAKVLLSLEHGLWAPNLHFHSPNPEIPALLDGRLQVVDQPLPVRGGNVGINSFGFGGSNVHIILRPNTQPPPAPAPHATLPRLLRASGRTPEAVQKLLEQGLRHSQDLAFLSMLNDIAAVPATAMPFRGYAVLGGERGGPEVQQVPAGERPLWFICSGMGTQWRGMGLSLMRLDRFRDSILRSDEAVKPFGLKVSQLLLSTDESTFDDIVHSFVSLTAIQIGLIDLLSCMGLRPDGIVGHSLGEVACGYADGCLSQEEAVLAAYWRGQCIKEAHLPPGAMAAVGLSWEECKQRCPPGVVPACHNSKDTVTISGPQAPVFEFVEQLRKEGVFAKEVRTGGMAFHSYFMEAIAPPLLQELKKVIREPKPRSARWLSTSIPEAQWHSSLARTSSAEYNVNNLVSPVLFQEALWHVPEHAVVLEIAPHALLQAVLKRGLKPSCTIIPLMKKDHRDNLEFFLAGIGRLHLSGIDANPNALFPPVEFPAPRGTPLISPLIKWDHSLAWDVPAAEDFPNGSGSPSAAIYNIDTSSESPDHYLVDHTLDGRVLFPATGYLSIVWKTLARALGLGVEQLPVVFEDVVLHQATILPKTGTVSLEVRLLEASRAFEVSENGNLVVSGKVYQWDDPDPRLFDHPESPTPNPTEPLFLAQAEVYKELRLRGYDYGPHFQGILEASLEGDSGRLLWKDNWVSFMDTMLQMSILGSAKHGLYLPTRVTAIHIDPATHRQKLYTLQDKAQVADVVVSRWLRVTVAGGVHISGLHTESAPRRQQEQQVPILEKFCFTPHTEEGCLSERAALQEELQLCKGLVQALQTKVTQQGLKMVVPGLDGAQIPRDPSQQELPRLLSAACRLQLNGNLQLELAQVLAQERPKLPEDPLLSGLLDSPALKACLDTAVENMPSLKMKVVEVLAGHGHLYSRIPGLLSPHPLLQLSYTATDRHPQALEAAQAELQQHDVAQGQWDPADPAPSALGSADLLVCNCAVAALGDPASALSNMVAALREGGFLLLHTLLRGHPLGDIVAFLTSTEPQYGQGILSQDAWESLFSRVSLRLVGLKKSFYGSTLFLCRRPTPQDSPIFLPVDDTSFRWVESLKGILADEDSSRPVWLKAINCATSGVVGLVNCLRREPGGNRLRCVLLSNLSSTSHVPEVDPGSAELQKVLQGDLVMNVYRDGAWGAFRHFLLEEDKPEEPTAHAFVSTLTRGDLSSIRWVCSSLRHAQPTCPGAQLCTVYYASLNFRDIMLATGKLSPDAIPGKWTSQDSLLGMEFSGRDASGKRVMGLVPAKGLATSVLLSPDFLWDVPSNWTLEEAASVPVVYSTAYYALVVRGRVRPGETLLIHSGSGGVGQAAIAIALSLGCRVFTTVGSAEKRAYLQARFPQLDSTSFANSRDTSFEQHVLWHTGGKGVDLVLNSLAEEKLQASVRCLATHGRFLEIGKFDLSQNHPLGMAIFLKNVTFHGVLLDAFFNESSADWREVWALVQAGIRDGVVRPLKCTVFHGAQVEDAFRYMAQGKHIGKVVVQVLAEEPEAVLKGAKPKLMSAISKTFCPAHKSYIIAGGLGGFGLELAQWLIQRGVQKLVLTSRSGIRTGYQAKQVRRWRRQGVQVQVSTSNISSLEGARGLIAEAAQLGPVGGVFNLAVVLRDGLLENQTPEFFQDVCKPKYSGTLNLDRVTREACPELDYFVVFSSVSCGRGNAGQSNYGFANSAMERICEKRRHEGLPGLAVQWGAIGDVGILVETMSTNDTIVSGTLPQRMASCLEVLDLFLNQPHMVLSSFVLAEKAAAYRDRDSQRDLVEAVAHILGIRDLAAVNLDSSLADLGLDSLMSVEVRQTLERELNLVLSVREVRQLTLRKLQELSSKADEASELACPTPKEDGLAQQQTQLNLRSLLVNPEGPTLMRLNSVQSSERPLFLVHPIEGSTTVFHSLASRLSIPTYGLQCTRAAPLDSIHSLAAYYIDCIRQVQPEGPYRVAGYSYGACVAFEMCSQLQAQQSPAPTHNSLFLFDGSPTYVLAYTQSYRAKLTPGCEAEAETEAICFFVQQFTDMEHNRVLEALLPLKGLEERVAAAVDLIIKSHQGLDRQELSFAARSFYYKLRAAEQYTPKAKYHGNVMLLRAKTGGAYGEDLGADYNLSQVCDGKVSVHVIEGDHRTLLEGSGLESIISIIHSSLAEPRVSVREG
Procathepsin L, sequence (P07711 whole entry): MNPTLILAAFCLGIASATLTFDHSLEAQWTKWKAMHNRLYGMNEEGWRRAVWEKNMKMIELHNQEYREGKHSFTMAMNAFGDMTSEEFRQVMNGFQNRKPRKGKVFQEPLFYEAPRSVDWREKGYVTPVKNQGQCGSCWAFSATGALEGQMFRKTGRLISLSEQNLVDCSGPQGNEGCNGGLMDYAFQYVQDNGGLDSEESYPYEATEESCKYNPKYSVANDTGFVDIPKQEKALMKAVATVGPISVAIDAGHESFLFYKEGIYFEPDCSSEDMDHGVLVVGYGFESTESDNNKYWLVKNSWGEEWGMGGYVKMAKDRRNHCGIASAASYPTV
Large T antigen, sequence (P03070 whole entry): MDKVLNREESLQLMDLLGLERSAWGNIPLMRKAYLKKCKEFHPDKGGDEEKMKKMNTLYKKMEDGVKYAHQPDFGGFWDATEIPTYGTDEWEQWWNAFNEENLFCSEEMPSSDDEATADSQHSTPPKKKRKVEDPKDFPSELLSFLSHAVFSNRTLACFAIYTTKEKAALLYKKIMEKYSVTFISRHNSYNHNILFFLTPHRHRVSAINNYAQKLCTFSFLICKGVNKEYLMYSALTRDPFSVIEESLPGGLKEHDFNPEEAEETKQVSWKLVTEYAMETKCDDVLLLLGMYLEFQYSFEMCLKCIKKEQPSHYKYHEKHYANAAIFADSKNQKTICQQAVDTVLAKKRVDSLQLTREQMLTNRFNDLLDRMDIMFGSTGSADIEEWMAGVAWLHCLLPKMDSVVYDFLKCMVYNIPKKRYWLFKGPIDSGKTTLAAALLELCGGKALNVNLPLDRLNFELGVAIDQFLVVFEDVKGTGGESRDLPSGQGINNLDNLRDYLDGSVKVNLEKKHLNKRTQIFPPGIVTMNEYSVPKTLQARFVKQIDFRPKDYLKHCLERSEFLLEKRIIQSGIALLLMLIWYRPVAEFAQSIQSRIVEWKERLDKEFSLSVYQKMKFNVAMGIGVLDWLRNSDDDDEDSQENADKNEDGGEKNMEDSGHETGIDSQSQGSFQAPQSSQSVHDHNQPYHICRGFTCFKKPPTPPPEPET
T3 sequence (P65502 whole entry): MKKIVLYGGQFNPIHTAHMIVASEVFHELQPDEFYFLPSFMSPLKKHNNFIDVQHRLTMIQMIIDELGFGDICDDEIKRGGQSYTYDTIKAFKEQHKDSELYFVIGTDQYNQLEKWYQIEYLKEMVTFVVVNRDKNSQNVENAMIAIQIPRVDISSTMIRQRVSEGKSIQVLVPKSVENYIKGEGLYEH
Induced myeloid leukemia cell differentiation protein Mcl-1, sequence (Q07820 whole entry): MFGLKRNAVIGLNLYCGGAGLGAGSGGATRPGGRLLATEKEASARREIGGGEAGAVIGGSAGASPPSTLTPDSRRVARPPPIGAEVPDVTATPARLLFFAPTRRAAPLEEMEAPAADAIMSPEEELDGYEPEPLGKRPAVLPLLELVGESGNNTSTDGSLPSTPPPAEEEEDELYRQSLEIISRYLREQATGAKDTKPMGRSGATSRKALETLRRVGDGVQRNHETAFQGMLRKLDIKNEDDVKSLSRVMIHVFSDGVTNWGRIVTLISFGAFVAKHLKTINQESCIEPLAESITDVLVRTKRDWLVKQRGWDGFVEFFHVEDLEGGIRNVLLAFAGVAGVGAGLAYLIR

Cc1ccc(C)c2nc(O)c(CN(Cc3cccnc3)C(S)=NCc3ccco3)cc12
EC50 [1]: > 50 µM (active)

O=C1OC(=O)C2C3CCC(O3)C12 (stereo unspecified)
IC50 [2]: 2.57 µM (active)

Cc1ccc(-c2nn3c(C)nnc3s2)cc1NC(=O)COc1ccc(Cl)cc1
EC50 (Estrogen receptor): 17.2 µM (active) | IC50 (H9c2): > 79 µM (inactive)

CCN(CC)c1ccc(/C=N/N=C(c2ccccc2)c2ccccc2)c(O)c1
IC50 [3]: > 80 µM (inactive)

C=CCn1c(S)nnc1CSc1nc2ccccc2s1
IC50 [4]: > 100 µM (inactive) | IC50 [5]: 3.29 µM (active)

O=C(CSc1nnc(-c2cccs2)n1Cc1ccccc1)NCc1ccc2c(c1)OCO2
EC50 [6]: 10.2 µM (active)

Sc1nnc(COc2ccccc2)n1/N=C/c1cccnc1
IC50 [4]: > 100 µM (inactive) | IC50 [5]: 3.71 µM (active)

COc1cc(OC)c(/C=N/NC(N)=S)cc1Br
IC50 [3]: > 80 µM (inactive)

COc1ccc(NC(=O)Cn2c(=O)oc3cc(S(=O)(=O)N4CCCC4)ccc32)c(OC)c1
EC50 [1]: > 50 µM (active)

O=C1OC(=O)C2C1[C@@H]1CC[C@H]2O1 (stereo partly specified)
IC50 [2]: 3.06 µM (active)

NC(=O)/C(=N\OC(=O)c1ccco1)c1nc(-c2ccc(Br)cc2)cs1
IC50 (Genome polyprotein): 40.8 µM (active) | IC50 (Prothrombin): 925 nM (active) | IC50 [7]: 34.3 µM (active) | IC50 [8]: 29.2 µM (active) | CC50 (Vero): > 40 µM (active) | IC50 (Coagulation factor XII): 21 µM (active) | AC50 (Cytochrome P450 2D6): 25.1 µM (inconclusive) | IC50 [9]: 7.32 µM (active)

CCOc1ccc(Br)cc1S(=O)(=O)Nc1ccccc1N1CCOCC1
EC50 [10]: > 40 µM (inactive)

CC(C)Oc1ccc(C(=O)Nc2ccc(N(C)C)cc2)cc1
IC50 [3]: > 80 µM (inactive) | IC50 (Large T antigen): 25.3 µM (active) | IC50 [11]: 4.48 µM (not active)

COc1ccc(C(=O)O)cc1NC(=S)NC(=O)c1ccc(-c2ccc(Cl)cc2)o1
EC50 (Streptococcus): > 150 µM (not active) | IC50 [7]: 27.1 µM (active) | EC50 [12]: 5.27 µM (active) | IC50 (Fatty acid synthase [13]): 7.5 µM (active) | IC50 (Fatty acid synthase [14]): 7.33 µM (active) | IC50 [11]: 7.13 µM (not active) | EC50 (Streptokinase A): 23.8 µM (inconclusive)

O=C(NCc1ccccc1)C(c1ccccc1)N(Cc1ccc2c(c1)OCO2)C(=O)Cc1cccs1 (stereo unspecified)
EC50 [6]: 5.37 µM (active)

O=C(NC1(C(F)(F)F)Oc2ccccc2O1)N1CCC2(CC1)OCCO2
IC50 (Aspartyl aminopeptidase): 2.78 µM (active) | IC50 (Procathepsin L): > 59.6 µM (not active)

Cc1ccc(S(=O)(=O)NCCn2c(C)cc3ccccc32)cc1
AC50 (Cytochrome P450 2C9): 3.55 µM (inconclusive) | EC50 (Estrogen receptor): 28.7 µM (active)

O=c1c2c([N+](=O)[O-])cc([N+](=O)[O-])cc2sn1Cc1ccccc1
EC50 (Streptococcus): 16.1 µM (active) | IC50 (Aspartyl aminopeptidase): > 0.101 µM (active) | EC50 [15]: 1.77 µM (active) | IC50 (Large T antigen): 13.1 µM (active) | EC50 [12]: 4.35 µM (active) | IC50 [5]: 4.16 µM (active) | EC50 (Streptokinase A): > 150 µM (not active) | EC50 [16]: 16.9 µM (active) | IC50 (Procathepsin L): > 59.6 µM (not active)
